The source of these data is patent US10744141B2, “Compositions and methods for treating cancer” (CASE WESTERN RESERVE UNIVERSITY, priority 2015, dated 2020).

One test relates to SRC. Description: Time course phosphoproteomics with KSEA, SRC output. It counts as cell-based. The following applies: H358 cells, 17.5 μM DT-061, relative to DMSO at the same time-point. The protocol: (§1) H358 cells (ATCC) were cultured at 37° C. and 5% CO2 using RPMI media supplemented with 10% FBS and 0.5% penicillin/streptomycin. Per condition, 20 million cells were treated with the appropriate reagent and harvested at the stated time point. The following are the doses used: 17.5 μM DT-061, 1 μM AZD6244, and 0.25 μM MK2206. Cell pellets were then stored at −80° C. for short term. To extract proteins, the cells were pulse sonicated in 2% SDS buffer over ice and in the presence of protease and phosphatase inhibitors. Cysteine amino acid residues were then reduced and alkylated. 800 μg of protein per sample was then digested with Lys-C and Trypsin overnight at 37° C. […]
(§2) The phospho-enriched peptides were analyzed by LC-MS/MS using a LTQ-Orbitrap Velos mass spectrometer (Thermo Scientific, Calif.) equipped with a nanoAcquity™ Ultra-high pressure liquid chromatography system (Waters, Mass.). […] The LC-MS/MS raw files were imported and analyzed by the Rosetta Elucidator™ and Mascot programs to sequence the peptides and to identify the parent protein.
(§3) The R programming language was used to generate the data and heat maps. […] Kinase-substrate relationships were determined from the PhosphoSitePlus database. […] The fold change (FC) for each identified hit was then calculated by taking the median peptide intensity with treatment, divided by median peptide intensity with DMSO. […]

The next test deals with ERK. Description: Time course phosphoproteomics with KSEA, ERK output. It counts as cell-based. Conditions: H358 cells, 17.5 μM DT-061, relative to DMSO at the same time-point. The protocol:
as §1, §2, §3

In the next test the test system is A549. The test is described as follows: MTT assay with Compound 2/Dasatinib dose escalation combinations. It counts as cell-based. Conditions: dose escalation of both drugs in parallel.
A further test relates to MOLT4. Description: Western blot time course of Y307 dephosphorylation and target engagement. It counts as cell-based. The following applies: MOLT4, increasing doses, various timepoints. On the procedure:
FIG. 3 illustrates a western blot analysis showing the kinetics of Y307 dephosphorylation and target engagement induced by Compound 1.
To evaluate the kinetics of Y307 dephosphorylation in the context of SMAP-mediated phosphatase activation, a time course study was conducted in the c-Myc driven T-ALL cell line MOLT4 with increasing doses of Compound 1 at various timepoints. PP2A has been well established to dephosphorylate the c-Myc proto-oncogene via dephosphorylation at Serine62 as a priming event for proteasome-mediated degradation, and prior work in the lab has validated Compound 1 mediates c-Myc proteolysis in in vitro models of c-Myc driven disease.

A further test deals with PP2A A-C dimer (Homo sapiens, UniProt P30153+P67775). Description: Radiolytic MS footprinting of PP2A A-C dimer with and without Compound 1. From the text:
FIG. 2 is a model illustrating a visual representation of conformational changes in the PP2A A-C dimer as detected by radiolytic MS footprinting.
In order to elucidate the conformational changes in PP2A induced by SMAPs, we conducted structural mass spectrometry using radiolytic MS footprinting, a novel approach to probe the structural alterations of complexes such as PP2A. In these experiments, hydroxyl radicals are generated by an X-ray beam and oxidatively modify solvent-exposed amino acid side chains. Areas of a protein that are solvent inaccessible are spared these modifications and can be considered protected regions. Compared to the PP2A A-C dimer alone, addition of Compound 1 induced significant changes in solvent exposure in both the A and C subunits, indicating a conformational change (FIG. 2).

[1] abbreviates: C-terminal tail peptide [303-309]/C, residue Y or F.
The mark [2] stands for this setting: catalytic subunit peptide [178-186]/C, residue H179.
[3] abbreviates: peptide [198-217]/C, residue W200.
[4] abbreviates: peptide [200-217]/C, residue W209.
Where [5] appears, read: peptide [200-223]/C, residue W200.
Setting [6] is: peptide [200-223]/C, residue W209.
Where [7] appears, read: peptide [200-223]/C, residue Y218.
The mark [8] stands for this setting: peptide [259-265]/C, residue Y265.
The mark [9] stands for this setting: peptide [279-286]/C, residue K283.
Where [10] appears, read: peptide [279-286]/C, residue Y284.

Structures are written as SMILES. Entries after “also recorded” stand apart in the source; their conditions may differ.

PP2A A-C dimer, sequence (P30153 whole entry): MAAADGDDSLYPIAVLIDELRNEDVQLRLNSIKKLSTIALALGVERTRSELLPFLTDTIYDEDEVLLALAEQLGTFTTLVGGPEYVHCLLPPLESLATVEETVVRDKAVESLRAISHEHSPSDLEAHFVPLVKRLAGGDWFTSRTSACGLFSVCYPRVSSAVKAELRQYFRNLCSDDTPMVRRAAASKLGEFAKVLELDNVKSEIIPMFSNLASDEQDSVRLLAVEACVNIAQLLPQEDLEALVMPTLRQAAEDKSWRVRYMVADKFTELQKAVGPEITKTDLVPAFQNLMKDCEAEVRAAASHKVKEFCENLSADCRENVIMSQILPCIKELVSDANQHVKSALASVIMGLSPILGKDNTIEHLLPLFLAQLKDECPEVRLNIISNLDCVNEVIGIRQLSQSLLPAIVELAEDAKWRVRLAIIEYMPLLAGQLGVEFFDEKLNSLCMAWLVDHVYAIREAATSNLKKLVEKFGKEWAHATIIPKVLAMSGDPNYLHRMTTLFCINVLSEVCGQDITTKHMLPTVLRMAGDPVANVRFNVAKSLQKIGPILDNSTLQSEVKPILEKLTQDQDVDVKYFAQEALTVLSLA
PP2A A-C dimer, sequence (P67775 whole entry): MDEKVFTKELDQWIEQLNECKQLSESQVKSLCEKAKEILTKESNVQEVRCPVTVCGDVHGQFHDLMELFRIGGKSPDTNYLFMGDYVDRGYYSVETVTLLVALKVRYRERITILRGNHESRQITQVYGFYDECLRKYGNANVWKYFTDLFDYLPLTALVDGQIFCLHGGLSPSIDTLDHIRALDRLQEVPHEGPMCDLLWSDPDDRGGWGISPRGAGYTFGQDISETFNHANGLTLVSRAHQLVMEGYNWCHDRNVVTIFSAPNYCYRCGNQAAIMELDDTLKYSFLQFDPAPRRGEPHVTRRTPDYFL

On to `O=S(=O)(N[C@@H]1CCC[C@H](N2c3ccccc3Oc3ccccc32)[C@H]1O)c1ccc(OC(F)(F)F)cc1` [DT-061], for which the “SRC activity output (KSEA)” value in the test on SRC is recorded as “minimal changes in SRC output”. Moreover, in the test on ERK, the “ERK activity output (KSEA)” value was “limited suppression of ERK output”.

Turning to `O=S(=O)(N[C@@H]1CCCC(N2c3ccccc3CCc3ccccc32)[C@H]1O)c1ccc(OC(F)(F)F)cc1` (stereo partly drawn) [Compound 2], the “decrease of the IC50 (GI50) of Compound 2” value with A549 was “nearly two-fold”.

Take `O=S(=O)(NC[C@H](O)CN1c2ccccc2CCc2ccccc21)c1ccc(OC(F)(F)F)cc1` [Compound 1]: the Parp cleavage result in the test on MOLT4 is listed as “resulting in Parp cleavage in a similar time-dependent manner”. For the same compound, in the test on MOLT4, the Y307 dephosphorylation kinetics result is “Y307 dephosphorylation occurs as a secondary event to the initial PP2A activation; also recorded: precede Y307 dephosphorylation”. Moreover, the “dephosphorylation of c-Myc” value in the test with MOLT4 was “very rapid dephosphorylation of c-Myc”. The “Modification Rate, S^−1 + Ligand” value is recorded as 0.56 ± 0.06 S^−1 on PP2A A-C dimer (setting [1]); 2.4 ± 0.2 S^−1 at PP2A A-C dimer (setting [2]); 1.8 ± 0.2 S^−1 at PP2A A-C dimer (setting [3]); 2.3 ± 0.1 S^−1 on PP2A A-C dimer (setting [4]); 1.4 ± 0.1 S^−1 at PP2A A-C dimer (setting [5]); 2.1 ± 0.1 S^−1 on PP2A A-C dimer (setting [6]). Also, the “Modification Rate, S^−1 + Ligand” value at PP2A A-C dimer (setting [7]) is 0.31 ± 0.03 S^−1; on PP2A A-C dimer (setting [8]), 0.12 ± 0.001 S^−1; on PP2A A-C dimer (setting [9]), 0.14 ± 0.01 S^−1; on PP2A A-C dimer (setting [10]), 0.13 ± 0.01 S^−1. Besides, the Protection factor on PP2A A-C dimer (setting [1]) came out at 12.0; at PP2A A-C dimer (setting [2]), 7.2; on PP2A A-C dimer (setting [3]), 6.2; at PP2A A-C dimer (setting [4]) it was 4.6; on PP2A A-C dimer (setting [5]) it was 4.6; at PP2A A-C dimer (setting [6]), 5.4. Besides, the Protection factor is 0.9 at PP2A A-C dimer (setting [7]), 4.8 at PP2A A-C dimer (setting [8]), 15 on PP2A A-C dimer (setting [9]) and 6.1 at PP2A A-C dimer (setting [10]). Also, the “decrease in solvent accessibility of the C terminal tail of the catalytic subunit” value at PP2A A-C dimer (Compound 1 treatment compared to control) worked out at 12 fold.
